ChEMBL document CHEMBL1201862, “PubChem BioAssay data set” (2004)
The source made the active and inactive calls.

Experiments:
[1] = molecular target: Peroxisome proliferator-activated receptor gamma/Nuclear receptor coactivator 3 (Homo sapiens, UniProt P37231); assay: TR-FRET dose response biochemical High Throughput Screening assay for agonists of the steroid receptor coactivator 3 (SRC-3) recruitment by the peroxisome proliferator-activated receptor gamma (PPAR gamma): non-selective agonists. [Related pubchem assays: 1301 (Confirmation screen.), 1048 (Primary screen.)]; type: functional
ORF 73 = molecular target: T1, ORF 73 (Human herpesvirus 8, UniProt O40947); assay: inhibitors of C-LANA binding to LBS DNA, dose response, biochemical, fluorescence polarization, cherry-picked samples (AID 504725); design: species or system Human gammaherpesvirus 8;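 also: fluorescence polarization of a labeled DNA duplex reporting LANA DNA binding; potency is for inhibitors that block LANA binding to the DNA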
T1 sequence (O40947 whole entry): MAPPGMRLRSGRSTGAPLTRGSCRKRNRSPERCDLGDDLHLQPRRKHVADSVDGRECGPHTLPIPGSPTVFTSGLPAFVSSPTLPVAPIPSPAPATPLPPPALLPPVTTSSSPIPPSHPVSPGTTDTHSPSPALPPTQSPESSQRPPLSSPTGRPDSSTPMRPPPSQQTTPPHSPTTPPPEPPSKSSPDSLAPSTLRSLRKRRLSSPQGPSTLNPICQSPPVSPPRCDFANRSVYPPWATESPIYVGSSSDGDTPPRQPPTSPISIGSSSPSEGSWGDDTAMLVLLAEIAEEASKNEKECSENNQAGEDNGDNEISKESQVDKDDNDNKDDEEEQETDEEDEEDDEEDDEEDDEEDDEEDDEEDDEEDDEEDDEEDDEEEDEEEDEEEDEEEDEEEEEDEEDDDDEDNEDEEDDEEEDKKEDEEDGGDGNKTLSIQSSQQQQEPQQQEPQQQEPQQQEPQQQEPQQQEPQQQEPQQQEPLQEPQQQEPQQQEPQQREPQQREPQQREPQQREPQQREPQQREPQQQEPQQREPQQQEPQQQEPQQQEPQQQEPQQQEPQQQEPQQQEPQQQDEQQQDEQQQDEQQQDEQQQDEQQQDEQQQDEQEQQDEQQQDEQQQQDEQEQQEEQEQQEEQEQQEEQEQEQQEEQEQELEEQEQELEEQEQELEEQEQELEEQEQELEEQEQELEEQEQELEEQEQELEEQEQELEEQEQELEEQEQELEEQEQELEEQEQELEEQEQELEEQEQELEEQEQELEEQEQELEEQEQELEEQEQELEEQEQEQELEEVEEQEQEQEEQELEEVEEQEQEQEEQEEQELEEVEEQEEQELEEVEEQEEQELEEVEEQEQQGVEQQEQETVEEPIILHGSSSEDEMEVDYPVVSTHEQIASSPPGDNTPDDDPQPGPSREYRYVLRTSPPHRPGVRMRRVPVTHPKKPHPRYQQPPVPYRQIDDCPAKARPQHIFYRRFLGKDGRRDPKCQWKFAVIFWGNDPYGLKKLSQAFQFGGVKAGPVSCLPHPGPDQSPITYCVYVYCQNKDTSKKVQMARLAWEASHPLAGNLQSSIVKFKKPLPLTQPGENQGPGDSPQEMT

[2] = molecular target: Mitogen-activated protein kinase 10 (Homo sapiens, UniProt P53779); assay: Dose response biochemical screening assay for inhibitors of c-Jun N-Terminal Kinase 3 (JNK3). [Related pubchem assays: 746 ]
HeLa = assay: HeLa cell cytotoxicity, dose response, cytotoxicity control, 24 h, cherry-picked samples (AID 504726); type: functional, cell-based; settings: Homo sapiens;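 also: potency for cytotoxicity as loss of luminescence signal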
[3] = molecular target: Peroxisome proliferator-activated receptor gamma/Nuclear receptor coactivator 2 (Homo sapiens, UniProt P37231); assay: TR-FRET dose response biochemical High Throughput Screening assay for agonists of the steroid receptor coactivator 2 (SRC-2) recruitment by the peroxisome proliferator-activated receptor gamma (PPAR gamma): non-selective agonists. [Related pubchem assays: 1297, 1032 ]; type: functional
[4] = molecular target: UDP-galactopyranose mutase (Mycobacterium tuberculosis, UniProt P9WIQ1); assay: Inhibitors of Mycobacterium tuberculosis UDP-galactopyranose mutase (UGM) enzyme Measured in Biochemical System Using Plate Reader - 2105-02_Inhibitor_Dose_CherryPick_Activity. [Related pubchem assays (depositor defined):AID504439]
[5] = molecular target: Peroxisome proliferator-activated receptor gamma/Nuclear receptor coactivator 1 (Homo sapiens, UniProt P37231); assay: TR-FRET dose response biochemical High Throughput Screening assay for agonists of the steroid receptor coactivator 1 (SRC-1) recruitment by the peroxisome proliferator-activated receptor gamma (PPAR gamma): non-selective agonists. [Related pubchem assays (depositor defined):AID1300, AID1808, AID504735, AID631]; type: protein assay
[6] = molecular target: T2, RNA-binding protein pos-1 (Caenorhabditis elegans, UniProt G5EF15); assay: inhibitors of POS-1/mex-3 RNA binding, dose response, biochemical, fluorescence polarization (AID 1964);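 also: purified POS-1 fused to maltose binding protein made in E. coli; potency of compounds blocking POS-1 binding to fluorescent RNA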
T2 sequence (G5EF15 whole entry): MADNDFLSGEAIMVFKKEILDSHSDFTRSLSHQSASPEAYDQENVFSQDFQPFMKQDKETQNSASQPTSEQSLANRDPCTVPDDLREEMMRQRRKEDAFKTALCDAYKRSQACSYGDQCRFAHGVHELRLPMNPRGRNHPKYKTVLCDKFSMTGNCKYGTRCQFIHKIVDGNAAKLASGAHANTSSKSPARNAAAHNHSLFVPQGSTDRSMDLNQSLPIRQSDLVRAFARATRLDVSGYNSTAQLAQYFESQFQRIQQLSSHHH

Keap1/Nrf2 = Keap1/Nrf2 (Homo sapiens, UniProt Q14145); assay: Keap1-Nrf2 protein-protein interaction inhibitors, dose response, biochemical, fluorescence polarization, cherry-picked samples (AID 588683)
[7] = molecular target: T3, Zinc finger protein mex-5 (Caenorhabditis elegans, UniProt Q9XUB2); assay: MEX-5/TCR-2 RNA interaction inhibitors, dose response, biochemical, C. elegans, fluorescence polarization (AID 1960)
T3 sequence (Q9XUB2 whole entry): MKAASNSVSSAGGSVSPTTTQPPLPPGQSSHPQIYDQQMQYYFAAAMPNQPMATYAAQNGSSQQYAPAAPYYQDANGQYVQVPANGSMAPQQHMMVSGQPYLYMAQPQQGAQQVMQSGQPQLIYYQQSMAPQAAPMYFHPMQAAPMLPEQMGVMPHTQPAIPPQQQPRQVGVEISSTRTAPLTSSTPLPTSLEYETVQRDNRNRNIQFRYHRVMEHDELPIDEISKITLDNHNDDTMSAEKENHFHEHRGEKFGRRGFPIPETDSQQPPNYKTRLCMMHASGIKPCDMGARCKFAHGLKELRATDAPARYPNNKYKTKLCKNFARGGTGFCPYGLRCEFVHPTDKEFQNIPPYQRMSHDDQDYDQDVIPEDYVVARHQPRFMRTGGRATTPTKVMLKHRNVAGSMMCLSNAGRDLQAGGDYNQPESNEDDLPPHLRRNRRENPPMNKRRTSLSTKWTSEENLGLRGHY

14-3-3 protein gamma = 14-3-3 protein gamma (Homo sapiens, UniProt P61981); assay: modulators of 14-3-3 gamma client binding – dose response (AID 711); type: functional
Interleukin-8 [8] = molecular target: T4, Interleukin-8 (Homo sapiens, UniProt P10145); assay: Dose Response confirmation of uHTS small molecule hits for cystic fibrosis induced NFkb Inhibitors in a TNFa-induced IL8 counterscreen.; type: functional; settings: read-out: IC50_Mean
T4 sequence (P10145 whole entry): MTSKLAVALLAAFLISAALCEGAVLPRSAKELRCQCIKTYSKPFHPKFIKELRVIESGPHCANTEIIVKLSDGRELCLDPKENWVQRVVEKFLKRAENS

Interleukin-8 [9] = molecular target: T4, Interleukin-8; assay: Dose Response confirmation of uHTS small molecule hits for cystic fibrosis induced NFkb Inhibitors in a PAF-induced IL8 counterscreen.; type: functional; settings: read-out: IC50_Mean
[10] = molecular target: T5, Heat shock factor protein 1 (Mus musculus, UniProt P38532); assay: HSF1 potentiators in luciferase reporter cells, confirmation, cell-based, NIH3T3, luminescence, dose retest (AID 435004); type: functional;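 also: stress induced by proteasome inhibitor MG132 added 30 min after compound; luciferase reporter driven by HSF1 response element in NIH3T3 cells; actives raise luminescence as potentiators of the MG132 stress response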
T5 sequence (P38532 whole entry): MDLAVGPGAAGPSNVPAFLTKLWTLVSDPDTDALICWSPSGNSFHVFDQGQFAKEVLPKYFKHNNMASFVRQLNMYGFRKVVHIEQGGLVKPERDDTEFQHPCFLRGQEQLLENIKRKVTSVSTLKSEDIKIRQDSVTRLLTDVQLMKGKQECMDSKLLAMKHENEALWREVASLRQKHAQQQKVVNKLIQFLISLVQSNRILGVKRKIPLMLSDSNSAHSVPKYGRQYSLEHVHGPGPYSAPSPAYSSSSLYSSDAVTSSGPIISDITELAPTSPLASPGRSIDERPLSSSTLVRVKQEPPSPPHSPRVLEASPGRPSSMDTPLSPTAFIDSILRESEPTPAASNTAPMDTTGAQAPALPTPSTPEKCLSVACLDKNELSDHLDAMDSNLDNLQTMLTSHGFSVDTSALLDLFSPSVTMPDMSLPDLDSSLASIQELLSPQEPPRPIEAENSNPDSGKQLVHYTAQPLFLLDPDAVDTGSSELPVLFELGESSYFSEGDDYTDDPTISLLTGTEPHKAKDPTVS

[11] = control 3'UTR Renilla luciferase suppression, dose response, counter-screen for Shn3 inhibitor project, cell-based, Clone20-Shn3RL, cherry-picked (AID 624133); type: functional
[12] = Shn3 3'UTR reporter inhibitors, dose response, cell-based, Clone20 osteoblasts, firefly luciferase, cherry-picked (AID 624132); type: functional;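 also: firefly luciferase luminescence from reporter carrying the Shn3 3'UTR in osteoblasts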
INS1 = assay: beta cell apoptosis inhibitors, cytokine rescue, dose response, luminescence, retest (AID 449756); type: functional, cell-based; settings: Rattus norvegicus;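 also: cell death triggered by IL-1 beta plus TNF-alpha plus IFN-gamma mixture; protective hits raise ATP signal compared with cytokine alone wells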
[13] = HepG2 cell cytotoxicity, dose response, cytotoxicity control for Shn3 inhibitor project, CellTiter-Glo, cherry-picked (AID 624134); type: functional, cell-based
Vero [14] = assay: host cell cytotoxicity of antiviral hits, dose response, cytotoxicity control for West Nile virus antiviral project, secondary assay (AID 1650); type: functional; settings: Chlorocebus sabaeus
[15] = molecular target: Diphosphomevalonate decarboxylase (Streptococcus pneumoniae serotype 2 (strain D39 / NCTC 7466), UniProt Q9FD53); assay: S. pneumoniae DPM-DC inhibition retest, confirmation, biochemical, cuvette format, coupled NADH fluorescence (AID 1028); type: functional
Danio rerio = assay: In Vivo Angiogenesis Dose-Response Confirmation. [Related pubchem assays: 732 (Assay preceding this confirmatory assay.)]; type: functional, organism-based
Bcl-2-related protein A1 [16] = molecular target: T6, Bcl-2-related protein A1 (Mus musculus, UniProt Q07440); assay: Bfl-1 binding inhibitors, SAR follow-up, biochemical, fluorescence polarization (AID 1070)
T6 sequence (Q07440 whole entry): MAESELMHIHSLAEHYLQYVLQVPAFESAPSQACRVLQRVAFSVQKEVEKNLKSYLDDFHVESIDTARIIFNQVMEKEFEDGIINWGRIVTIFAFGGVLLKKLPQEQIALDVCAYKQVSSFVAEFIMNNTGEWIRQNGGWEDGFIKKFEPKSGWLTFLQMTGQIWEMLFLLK

Bcl-2-related protein A1 [17] = molecular target: T6, Bcl-2-related protein A1; assay: Bfl-1 inhibitors blocking BH3 peptide binding, confirmation, biochemical, TR-FRET, mouse Bfl-1 (AID 621);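 also: TR-FRET binding of GST-Bfl-1 to FITC-labelled Bid peptide via terbium antibody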
[18] = Luminescence Cell-Based Dose Response to Identify Activators of 5'UTR Stem-Loop Driven Prion Protein mRNA Translation in H4-C Neuroglioblastoma Cells. [Related pubchem assays: 1829 (Project Summary), 1814 (Primary HTS)]; type: functional
[19] = Luminescence Cell-Based Dose Response HTS to Identify Activators of Luciferase Translation or Activity in H4 […] Cells. [Related pubchem assays: 1829 (Project Summary), 1814 (Primary HTS)]; type: functional
[20] = C. albicans growth with fluconazole, confirmation, fluorescence, retest (AID 2467); type: functional, cell-based
[21] = Luminescence Cell-Based Dose Confirmation to Identify Activators of 5'UTR Stem-Loop Driven Alpha-Synuclein mRNA Translation in H4 Neuroglioblastoma Cells. [Related pubchem assays: 1829 (Project Summary), 1814 (Primary HTS)]; type: functional
H4 = assay: Luminescence Cell-Based Dose Response HTS to Identify Activators of 5'UTR Stem-Loop Driven Prion Protein mRNA Translation in H4 Neuroglioblastoma Cells. [Related pubchem assays: 1829 (Project Summary), 1814 (Primary HTS)]; type: functional; settings: Homo sapiens
[22] = NIH-3T3 fibroblast cytotoxicity, dose response, cytotoxicity control, cell-based, fluorescence, Alamar Blue, secondary assay (AID 2327); type: functional;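 also: NIH-3T3 mouse fibroblasts cultured with fluconazole at 8 µg/mL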
Vero [23] = assay: Vero cell cytotoxicity, cytotoxicity control for flavivirus capping enzyme inhibitors (AID 588742); type: functional; settings: Chlorocebus sabaeus
[24] = Luminescence Cell-Based Dose Response to Identify Activators of Luciferase Translation or Activity in H4-C Neuroglioblastoma Cells. [Related pubchem assays: 1829 (Project Summary), 1814 (Primary HTS)]; type: functional
Vero [25] = assay: West Nile virus antiviral activity, cell-based, CPE readout (AID 1621); type: functional; settings: Chlorocebus sabaeus

Sequence of Keap1/Nrf2 (Q16236 whole entry): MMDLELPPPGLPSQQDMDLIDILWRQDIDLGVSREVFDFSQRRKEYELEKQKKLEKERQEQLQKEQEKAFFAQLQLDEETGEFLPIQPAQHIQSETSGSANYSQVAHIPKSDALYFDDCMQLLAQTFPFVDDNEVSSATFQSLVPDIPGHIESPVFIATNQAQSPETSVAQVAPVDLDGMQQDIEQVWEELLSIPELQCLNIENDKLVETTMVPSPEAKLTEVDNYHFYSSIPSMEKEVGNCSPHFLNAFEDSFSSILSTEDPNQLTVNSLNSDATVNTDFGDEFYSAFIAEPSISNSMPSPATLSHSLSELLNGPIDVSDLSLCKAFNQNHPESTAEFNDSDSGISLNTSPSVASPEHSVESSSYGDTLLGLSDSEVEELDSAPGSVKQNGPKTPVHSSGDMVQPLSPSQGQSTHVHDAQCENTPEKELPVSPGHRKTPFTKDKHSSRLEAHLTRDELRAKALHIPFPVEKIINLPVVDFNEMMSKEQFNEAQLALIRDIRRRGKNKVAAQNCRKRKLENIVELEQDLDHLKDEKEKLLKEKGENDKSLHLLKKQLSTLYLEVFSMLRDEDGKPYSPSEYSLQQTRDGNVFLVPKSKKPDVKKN
Sequence of Keap1/Nrf2 (Q14145 whole entry): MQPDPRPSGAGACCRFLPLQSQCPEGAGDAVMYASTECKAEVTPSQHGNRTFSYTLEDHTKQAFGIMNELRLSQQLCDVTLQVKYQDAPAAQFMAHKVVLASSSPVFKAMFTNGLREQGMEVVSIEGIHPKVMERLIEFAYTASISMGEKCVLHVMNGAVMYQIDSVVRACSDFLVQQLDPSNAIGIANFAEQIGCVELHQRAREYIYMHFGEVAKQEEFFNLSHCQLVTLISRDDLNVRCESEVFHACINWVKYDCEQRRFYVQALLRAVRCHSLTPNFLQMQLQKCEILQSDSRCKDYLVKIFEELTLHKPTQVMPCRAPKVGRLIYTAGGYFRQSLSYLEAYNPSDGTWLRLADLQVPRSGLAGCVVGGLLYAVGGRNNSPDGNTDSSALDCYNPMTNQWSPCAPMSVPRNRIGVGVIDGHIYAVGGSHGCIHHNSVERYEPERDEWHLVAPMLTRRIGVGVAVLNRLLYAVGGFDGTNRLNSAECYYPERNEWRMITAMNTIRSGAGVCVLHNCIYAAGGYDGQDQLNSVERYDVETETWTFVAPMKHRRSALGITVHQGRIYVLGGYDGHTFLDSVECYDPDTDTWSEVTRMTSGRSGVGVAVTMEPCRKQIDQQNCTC
Sequence of UDP-galactopyranose mutase (P9WIQ1 whole entry): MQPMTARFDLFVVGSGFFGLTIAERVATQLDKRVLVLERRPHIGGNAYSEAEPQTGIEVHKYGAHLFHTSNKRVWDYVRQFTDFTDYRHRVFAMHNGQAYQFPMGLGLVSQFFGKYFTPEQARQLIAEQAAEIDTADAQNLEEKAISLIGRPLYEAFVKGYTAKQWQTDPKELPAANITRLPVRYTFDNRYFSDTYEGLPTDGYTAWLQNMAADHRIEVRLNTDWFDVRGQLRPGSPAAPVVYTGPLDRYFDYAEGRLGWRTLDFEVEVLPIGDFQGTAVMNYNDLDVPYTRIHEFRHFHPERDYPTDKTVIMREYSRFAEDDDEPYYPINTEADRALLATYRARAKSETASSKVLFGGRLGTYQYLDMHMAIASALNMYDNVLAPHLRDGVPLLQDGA
Sequence of Diphosphomevalonate decarboxylase (Q9FD53 whole entry): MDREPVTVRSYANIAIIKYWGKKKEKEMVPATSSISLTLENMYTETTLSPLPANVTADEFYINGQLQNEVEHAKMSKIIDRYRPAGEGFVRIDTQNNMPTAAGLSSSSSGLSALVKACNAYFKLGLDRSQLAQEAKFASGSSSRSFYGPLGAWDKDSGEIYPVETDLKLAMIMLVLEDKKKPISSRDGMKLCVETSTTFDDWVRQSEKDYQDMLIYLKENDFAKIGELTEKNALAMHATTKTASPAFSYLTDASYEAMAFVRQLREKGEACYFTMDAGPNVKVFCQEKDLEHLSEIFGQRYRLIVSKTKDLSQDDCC
Sequence of 14-3-3 protein gamma (P61981 whole entry): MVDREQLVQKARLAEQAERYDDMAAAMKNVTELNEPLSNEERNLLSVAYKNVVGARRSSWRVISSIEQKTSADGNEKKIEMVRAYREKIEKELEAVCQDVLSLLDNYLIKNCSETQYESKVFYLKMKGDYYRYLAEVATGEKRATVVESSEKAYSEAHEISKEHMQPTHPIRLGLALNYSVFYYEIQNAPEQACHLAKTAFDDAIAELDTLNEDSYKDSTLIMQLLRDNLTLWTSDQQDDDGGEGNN
Sequence of Peroxisome proliferator-activated receptor gamma/Nuclear receptor coactivator 1 (P37231 whole entry, the tested form may be a part): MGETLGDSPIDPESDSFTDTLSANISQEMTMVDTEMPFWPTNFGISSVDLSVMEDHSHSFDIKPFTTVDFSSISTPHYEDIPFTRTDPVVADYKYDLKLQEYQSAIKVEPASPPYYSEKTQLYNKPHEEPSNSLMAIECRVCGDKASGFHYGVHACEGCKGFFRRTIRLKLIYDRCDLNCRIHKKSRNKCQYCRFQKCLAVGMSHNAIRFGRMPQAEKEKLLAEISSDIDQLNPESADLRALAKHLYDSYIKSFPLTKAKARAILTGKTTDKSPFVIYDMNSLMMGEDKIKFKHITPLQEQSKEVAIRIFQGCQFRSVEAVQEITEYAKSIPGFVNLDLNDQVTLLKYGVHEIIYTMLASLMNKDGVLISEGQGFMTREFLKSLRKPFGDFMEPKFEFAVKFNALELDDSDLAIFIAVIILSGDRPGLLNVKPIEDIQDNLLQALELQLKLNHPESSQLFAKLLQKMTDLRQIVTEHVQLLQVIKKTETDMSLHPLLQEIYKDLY
Sequence of Peroxisome proliferator-activated receptor gamma/Nuclear receptor coactivator 1 (Q15788 whole entry, further chain, the tested form may be a part): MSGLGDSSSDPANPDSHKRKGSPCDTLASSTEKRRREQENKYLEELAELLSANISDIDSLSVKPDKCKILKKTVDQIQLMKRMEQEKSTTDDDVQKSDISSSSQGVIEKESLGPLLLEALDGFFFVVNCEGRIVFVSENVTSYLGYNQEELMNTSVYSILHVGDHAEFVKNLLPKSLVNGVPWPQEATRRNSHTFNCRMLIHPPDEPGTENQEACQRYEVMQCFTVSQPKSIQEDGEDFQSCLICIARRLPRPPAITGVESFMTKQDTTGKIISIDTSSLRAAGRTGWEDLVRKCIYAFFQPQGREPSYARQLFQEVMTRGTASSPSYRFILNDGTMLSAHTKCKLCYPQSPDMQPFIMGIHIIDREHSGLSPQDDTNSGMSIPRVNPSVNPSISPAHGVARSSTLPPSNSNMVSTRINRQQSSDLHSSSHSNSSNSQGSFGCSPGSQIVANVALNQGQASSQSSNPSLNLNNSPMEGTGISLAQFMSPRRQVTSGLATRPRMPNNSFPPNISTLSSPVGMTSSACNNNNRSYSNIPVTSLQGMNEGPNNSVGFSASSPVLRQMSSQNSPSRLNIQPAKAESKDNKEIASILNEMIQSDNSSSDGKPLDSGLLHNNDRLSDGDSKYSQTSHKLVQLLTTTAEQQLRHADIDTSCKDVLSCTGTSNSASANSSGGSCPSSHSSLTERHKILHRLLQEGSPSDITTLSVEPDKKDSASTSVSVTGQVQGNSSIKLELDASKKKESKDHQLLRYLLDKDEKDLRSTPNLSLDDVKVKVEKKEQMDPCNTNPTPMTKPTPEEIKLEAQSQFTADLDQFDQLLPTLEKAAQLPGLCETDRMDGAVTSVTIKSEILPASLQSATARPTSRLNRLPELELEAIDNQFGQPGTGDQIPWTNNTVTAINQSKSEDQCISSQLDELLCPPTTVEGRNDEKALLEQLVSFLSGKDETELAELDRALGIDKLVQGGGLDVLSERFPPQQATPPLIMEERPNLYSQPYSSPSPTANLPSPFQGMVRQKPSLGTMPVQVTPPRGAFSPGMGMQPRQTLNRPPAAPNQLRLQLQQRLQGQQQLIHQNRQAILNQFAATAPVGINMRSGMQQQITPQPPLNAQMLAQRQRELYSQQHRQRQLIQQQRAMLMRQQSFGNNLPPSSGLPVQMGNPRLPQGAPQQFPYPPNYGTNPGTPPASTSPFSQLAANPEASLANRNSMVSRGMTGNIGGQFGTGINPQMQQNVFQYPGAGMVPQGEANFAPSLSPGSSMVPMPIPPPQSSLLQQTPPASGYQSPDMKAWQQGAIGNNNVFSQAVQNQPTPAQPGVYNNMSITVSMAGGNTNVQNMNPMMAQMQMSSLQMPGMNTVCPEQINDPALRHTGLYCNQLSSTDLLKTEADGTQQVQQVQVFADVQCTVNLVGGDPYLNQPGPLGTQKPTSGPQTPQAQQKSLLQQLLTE
Sequence of Mitogen-activated protein kinase 10 (P53779 whole entry): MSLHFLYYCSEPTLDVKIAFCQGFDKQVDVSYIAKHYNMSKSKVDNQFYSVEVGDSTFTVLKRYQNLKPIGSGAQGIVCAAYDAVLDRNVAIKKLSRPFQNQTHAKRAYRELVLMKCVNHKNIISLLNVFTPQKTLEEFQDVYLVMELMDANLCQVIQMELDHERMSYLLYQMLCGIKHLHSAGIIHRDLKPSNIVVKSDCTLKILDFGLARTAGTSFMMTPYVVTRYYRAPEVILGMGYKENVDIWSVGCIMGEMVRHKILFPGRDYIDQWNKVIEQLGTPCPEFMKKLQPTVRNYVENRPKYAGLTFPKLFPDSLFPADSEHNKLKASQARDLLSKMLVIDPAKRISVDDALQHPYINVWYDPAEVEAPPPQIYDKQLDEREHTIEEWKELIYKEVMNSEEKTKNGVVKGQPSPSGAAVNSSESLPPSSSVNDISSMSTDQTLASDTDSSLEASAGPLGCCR

O=C1c2ccccc2-c2onc3ccc(NCc4ccco4)c1c23
EC50 [1]: > 79.4 µM (not active) | AC50 (ORF 73): 7.42 µM (active) | IC50 [2]: 24 µM (not active) | AC50 (HeLa): 17.1 µM (active) | EC50 [3]: 24.3 µM (not active) | AC50 [4]: 1.2 µM (active) | EC50 [5]: > 79.4 µM (inactive) | EC50 [6]: 0.173 µM (inconclusive) | AC50 (Keap1/Nrf2): 1.26 µM (active) | EC50 [7]: < 0.06 µM (inconclusive) | IC50 (14-3-3 protein gamma): < 44 µM (inconclusive)

COc1ccc2c(c1OC)C(=O)OC2Nc1nc(-c2ccccc2)cs1 (configuration not stated)
IC50 (Interleukin-8 [8]): 39.9 µM (inactive) | IC50 (Interleukin-8 [9]): 0.697 µM (active) | EC50 [10]: 13.6 µM (active) | AC50 [11]: 17.7 µM (active) | AC50 [12]: 4.7 µM (active) | AC50 (INS1): 17.6 µM (active) | AC50 [13]: 58.8 µM (active) | CC50 (Vero [14]): 9.86 µM (active)

O=C(c1ccc(-n2sc3ccccc3c2=O)cc1)N1CCCCC1
IC50 [15]: 14.3 µM (active)

O=C1Nc2ccccc2/C1=C1/Nc2ccccc2C1=O [INDIRUBIN]
IC50 (Danio rerio): < 0.1 µM (not active)

COc1ccc2nc(O)c(-c3nnn(-c4ccccc4)n3)cc2c1
IC50 (Bcl-2-related protein A1 [16]): > 100 µM (not active) | IC50 (Bcl-2-related protein A1 [17]): > 100 µM (not active)

O=C(NNC(=O)c1cc2ccccc2cc1O)c1cccs1
EC50 [18]: 9.37 µM (active) | EC50 [19]: < 0.1 µM (active) | EC50 [20]: > 38 µM (not active) | EC50 [21]: 1.87 µM (active) | EC50 (H4): > 120 µM (not active) | EC50 [22]: > 150 µM (inactive) | CC50 (Vero [23]): > 40 µM (active) | EC50 [24]: 1.47 µM (active)

COc1cc(CNC(C)(C)CO)cc(Br)c1OCc1ccc(Cl)cc1
IC50 (Vero [25]): 19.1 µM (active)
